Reference: the NIST ThermoML archive (doi:10.1021/acs.jced.7b00396)

Conditions: for mass density: 700 kPa, Gamma attenuation method; for viscosity: Capillary tube (Ostwald / Ubbelohde) method

C1C[C@@H]2[C@H]3CC[C@H](C3)[C@@H]2C1 [exo-tetrahydrodicyclopentadiene]
Conditions	mass density [kg/m3]
239.8 K, Liquid	965.9
266.2 K, Liquid	955.9
290.9 K, Liquid	945.8
307 K, Liquid	936.3
337.1 K, Liquid	917.3
368.4 K, Liquid	890
391.9 K, Liquid	877.6
428.7 K, Liquid	857.3
468.5 K, Liquid	818.7
483.8 K, Liquid	779.5
510 K, Liquid	759.3
532.4 K, Liquid	737.7
562.1 K, Liquid	646.3
603.4 K, Gas	25.5
651.6 K, Gas	22.9
682.7 K, Gas	29.4
730.2 K, Gas	19.5
744.7 K, Gas	19.7
771.9 K, Gas	26.4
803.3 K, Gas	24.4
833 K, Gas	25.4
873.3 K, Gas	24.4

Conditions	viscosity [mPa·s]
242.7 K, 690 kPa, Liquid	10.69
242.7 K, 1700 kPa, Liquid	10.73
242.7 K, 3000 kPa, Liquid	10.8
242.7 K, 6000 kPa, Liquid	10.82
262.4 K, 690 kPa, Liquid	5.78
262.4 K, 1700 kPa, Liquid	5.82
262.5 K, 3000 kPa, Liquid	5.828
262.5 K, 6000 kPa, Liquid	5.888
303.1 K, 3000 kPa, Liquid	2.49
303.1 K, 6000 kPa, Liquid	2.498
303.2 K, 690 kPa, Liquid	2.479
303.2 K, 1700 kPa, Liquid	2.483
313.1 K, 690 kPa, Liquid	1.996
313.2 K, 1700 kPa, Liquid	2.026
313.2 K, 3000 kPa, Liquid	2.146
313.2 K, 6000 kPa, Liquid	2.186
333.1 K, 3000 kPa, Liquid	1.709
333.1 K, 6000 kPa, Liquid	1.758
333.2 K, 690 kPa, Liquid	1.68
333.2 K, 1700 kPa, Liquid	1.701
353.1 K, 690 kPa, Liquid	1.142
353.1 K, 3000 kPa, Liquid	1.234
353.1 K, 6000 kPa, Liquid	1.268
353.2 K, 1700 kPa, Liquid	1.165
373.1 K, 690 kPa, Liquid	0.8868
373.1 K, 1700 kPa, Liquid	0.9068
373.2 K, 3000 kPa, Liquid	0.9467
373.2 K, 6000 kPa, Liquid	0.9789
393 K, 3000 kPa, Liquid	0.7365
393.1 K, 1700 kPa, Liquid	0.7265
393.2 K, 690 kPa, Liquid	0.7065
393.4 K, 6000 kPa, Liquid	0.7661
412.9 K, 3000 kPa, Liquid	0.5811
413.1 K, 1700 kPa, Liquid	0.5518
413.1 K, 6000 kPa, Liquid	0.6028
413.2 K, 690 kPa, Liquid	0.5267
433.1 K, 1700 kPa, Liquid	0.4372
433.1 K, 3000 kPa, Liquid	0.4776
433.2 K, 690 kPa, Liquid	0.4172
433.2 K, 6000 kPa, Liquid	0.4992
453.1 K, 690 kPa, Liquid	0.3605
453.1 K, 1700 kPa, Liquid	0.4005
453.1 K, 6000 kPa, Liquid	0.4321
453.2 K, 3000 kPa, Liquid	0.3903
473.1 K, 6000 kPa, Liquid	0.3675
473.2 K, 690 kPa, Liquid	0.3123
473.2 K, 1700 kPa, Liquid	0.3003
473.2 K, 3000 kPa, Liquid	0.3204
493.1 K, 6000 kPa, Liquid	0.3055
493.2 K, 690 kPa, Liquid	0.2255
493.2 K, 1700 kPa, Liquid	0.2552
493.2 K, 3000 kPa, Liquid	0.2752
513.1 K, 6000 kPa, Liquid	0.2964
513.2 K, 690 kPa, Liquid	0.2054
513.2 K, 1700 kPa, Liquid	0.2204
513.2 K, 3000 kPa, Liquid	0.2264
533.2 K, 690 kPa, Liquid	0.1602
533.2 K, 1700 kPa, Liquid	0.1809
533.4 K, 3000 kPa, Liquid	0.1837
533.4 K, 6000 kPa, Liquid	0.2139
552.9 K, 690 kPa, Liquid	0.1309
552.9 K, 1700 kPa, Liquid	0.1509
553.3 K, 6000 kPa, Liquid	0.1899
553.5 K, 3000 kPa, Liquid	0.1502
573.3 K, 6000 kPa, Liquid	0.1554
573.4 K, 690 kPa, Gas	0.0304
573.4 K, 1700 kPa, Liquid	0.1254
573.4 K, 3000 kPa, Liquid	0.1354
593.2 K, 690 kPa, Gas	0.0324
593.2 K, 1700 kPa, Gas	0.0394
593.2 K, 6000 kPa, Liquid	0.1453
593.3 K, 3000 kPa, Gas	0.1154
613 K, 3000 kPa, Gas	0.1016
613.4 K, 6000 kPa, Liquid	0.1316
613.6 K, 690 kPa, Gas	0.0288
613.6 K, 1700 kPa, Gas	0.0389
633.3 K, 3000 kPa, Gas	0.0977
633.3 K, 6000 kPa, Liquid	0.1177
633.4 K, 690 kPa, Gas	0.0338
633.4 K, 1700 kPa, Gas	0.0371
653.3 K, 690 kPa, Gas	0.0277
653.3 K, 1700 kPa, Gas	0.0328
653.4 K, 3000 kPa, Gas	0.0898
653.5 K, 6000 kPa, Liquid	0.0991
672.3 K, 3000 kPa, Gas	0.0804
673.2 K, 6000 kPa, Liquid	0.0956
673.3 K, 690 kPa, Gas	0.0265
673.3 K, 1700 kPa, Gas	0.0302
692.5 K, 690 kPa, Gas	0.0311
692.5 K, 1700 kPa, Gas	0.0321
692.5 K, 3000 kPa, Gas	0.0768
692.5 K, 6000 kPa, Liquid	0.0927
713.8 K, 690 kPa, Gas	0.0276
713.8 K, 1700 kPa, Gas	0.0294
713.8 K, 3000 kPa, Gas	0.0689
713.8 K, 6000 kPa, Gas	0.0889
734 K, 690 kPa, Gas	0.0303
734 K, 1700 kPa, Gas	0.0324
734 K, 3000 kPa, Gas	0.0645
734 K, 6000 kPa, Gas	0.0844
753.3 K, 690 kPa, Gas	0.0324
753.3 K, 1700 kPa, Gas	0.0352
753.3 K, 3000 kPa, Gas	0.0628
753.3 K, 6000 kPa, Gas	0.0828

CCCCCCCC [octane]
5100 kPa, Liquid
Conditions	viscosity [mPa·s]
303.2 K	0.5014
353.1 K	0.3078
403.2 K	0.207
453.1 K	0.1465
503 K	0.1049
553.4 K	0.0692
